From patent publication US12024512B2, “Cocrystal” (TAKEDA PHARMACEUTICAL COMPANY LIMITED, priority 2016, dated 2024)
Values after ≈ are worked out from the molar mass of the structure shown.

Legend:
Format in all cases: physicochemical
[1] = Slurry experiment: crystal form of residue after stirring in test solvent; details: about 25° C., 24 hr
Procedure: (§1) Powder X-ray diffraction measurement was performed using Cu-Kα radiation and measured by horizontal multipurpose X-ray diffraction system Ultima IV manufactured by Rigaku Corporation. Differential scanning calorimetric or thermogravimetric measurement was performed using DSC1/700/903-2 manufactured by Mettler Toledo or TGA/DSC1/LF/629-2 manufactured by Mettler Toledo and measured at temperature rise rate 5° C./min. Infrared spectrum was measured using Fourier transform infrared spectrophotometer Shimadzu IR Prestige-21 manufactured by Shimadzu Corporation and mounting Dura Sample IR II manufactured by Smiths Detection and by a total reflection method absorption measurement method at resolution 4 cm^−1. Raman spectroscopy was measured using RXN2 manufactured by Kaiser Optical Systems and a laser light source at excitation wavelength 1064 nm. Single crystal X-ray diffraction was measured using Cu-Kα radiation and curved imaging plate single crystal automatic X-ray structure analyzer R-AXIS RAPID II manufactured by Rigaku Corporation. Initial phase was determined by the direct method and the structure was refined by SHELXL-97. […] Intrinsic dissolution rate measurement was evaluated using a compression-molded disc of a crystal powder alone and in 20 mmoL/L sodium phosphate buffer (pH 6.8) containing 0.2% (w/v) sodium lauryl sulfate and by a rotating disc method (rotating speed: 100 rpm). Dissolution test was performed using a powder obtained by physically mixing a crystal powder and lactose in the same weight as the crystal powder and evaluated in Fasted State Simulated Intestinal Fluid (FaSSIF) at 37° C. by a rotating paddle method (paddle rotating speed: 50 rpm). The drug concentration of a solution was determined by liquid chromatography using Alliance HPLC system e2695 and detector 2789 manufactured by Waters (separation column: YMCPackPro C18 4.6 mm[…]×150 mm, temperature: 40° C., mobile phase: 20 mmol/L sodium phosphate buffer (pH 6.8)/acetonitrile=60/40 (v/v), flow rate: 1 mL/min, ultraviolet absorption detection wavelength: 240 nm). As slurry experiment, a test solvent was added to a crystal powder, the mixture was stirred at about 25° C. for 24 hr in suspension, the obtained residue was collected by filtration, and the crystal form was confirmed by powder X-ray diffraction measurement or Raman spectroscopy. In the recrystallization experiment, crystals were dissolved in ethanol, acetone, 2-propanol, tetrahydrofuran, methyl ethyl ketone, ethyl acetate, isopropyl acetate, anisole or isobutyl acetate at 55° C., filtered through a filter, allowed to cool to 5° C. or allowed to cool to 5° C. after adding n-heptane to the solution, and the crystal form of the obtained precipitate was confirmed by powder X-ray diffraction measurement or Raman spectroscopy.

[2] = Solubility in aqueous solutions after shaking each crystal at 37° C. for 24 hr; details: thermodynamic from solid, 24 hr shaking
[3] = Recrystallization experiment: crystal form of precipitate from organic solvent; details: dissolved at 55° C., cooled to 5° C.
Procedure: as §1

CCc1cc2c(c(OCC(F)(F)F)c(C(=O)NC3CCN(C(=O)CO)CC3)n2C)c(=O)n1CC(=O)c1ccccc1 [anhydrous crystal of free form, 6-ethyl-N-[1-(hydroxyacetyl)piperidin-4-yl]-1-methyl-4-oxo-5-(2-oxo-2-phenylethyl)-3-(2,2,2-trifluoroethoxy)-4,5-dihydro-1H-pyrrolo[3,2-c]pyridine-2-carboxamide, reference compound]
Crystal form of residue after slurry experiment ([1]; 2-propanol): free form (solvate)
Crystal form of residue after slurry experiment ([1]; acetone): free form (solvate)
Crystal form of residue after slurry experiment ([1]; anisole): free form (solvate)
Crystal form of residue after slurry experiment ([1]; distilled water): free form (solvate)
Crystal form of residue after slurry experiment ([1]; ethanol): free form (solvate)
Crystal form of residue after slurry experiment ([1]; ethyl acetate): free form (solvate)
Crystal form of residue after slurry experiment ([1]; methyl ethyl ketone): free form (solvate)
Crystal form of residue after slurry experiment ([1]; tetrahydrofuran): free form (solvate)
solubility at 24 hr ([2]; Fasted State Simulated Intestinal Fluid (FaSSIF), FaSSIF): 23.9 ± 0.1 µg/mL (≈ 41.5 µM)
solubility at 24 hr ([2]; Fed State Simulated Intestinal Fluid (FeSSIF), FeSSIF): 88.7 ± 0.7 µg/mL (≈ 154 µM)
solubility at 24 hr ([2]; Japanese Pharmacopoeia 1st fluid for dissolution test (JP1), simulated gastric fluid, JP1 (Japanese Pharmacopoeia 1st fluid for dissolution test)): 20.6 ± 0.4 µg/mL (≈ 35.7 µM)
solubility at 24 hr ([2]; distilled water, concentration of API): 21.5 ± 0.5 µg/mL (≈ 37.3 µM)
Crystal form of precipitate obtained by recrystallization experiment ([3]; 2-propanol): free form (solvate)
Crystal form of precipitate obtained by recrystallization experiment ([3]; 2-propanol/n-heptane, n-heptane added): free form (solvate)
Crystal form of precipitate obtained by recrystallization experiment ([3]; acetone): free form (solvate)
Crystal form of precipitate obtained by recrystallization experiment ([3]; acetone/n-heptane, n-heptane added): free form (solvate)
Crystal form of precipitate obtained by recrystallization experiment ([3]; anisole): free form (solvate)
Crystal form of precipitate obtained by recrystallization experiment ([3]; anisole/n-heptane, n-heptane added): free form (solvate)
Crystal form of precipitate obtained by recrystallization experiment ([3]; ethanol): free form (solvate)
Crystal form of precipitate obtained by recrystallization experiment ([3]; ethanol/n-heptane, n-heptane added): free form (solvate)
Crystal form of precipitate obtained by recrystallization experiment ([3]; ethyl acetate): free form (solvate)
Crystal form of precipitate obtained by recrystallization experiment ([3]; ethyl acetate/n-heptane, n-heptane added): free form (solvate)
Crystal form of precipitate obtained by recrystallization experiment ([3]; isobutyl acetate): free form solvate)
Crystal form of precipitate obtained by recrystallization experiment ([3]; isopropyl acetate): free form (solvate)
Crystal form of precipitate obtained by recrystallization experiment ([3]; methyl ethyl ketone): free form (solvate)
Crystal form of precipitate obtained by recrystallization experiment ([3]; methyl ethyl ketone/n-heptane, n-heptane added): free form (solvate)
Crystal form of precipitate obtained by recrystallization experiment ([3]; tetrahydrofuran): free form (solvate)
Crystal form of precipitate obtained by recrystallization experiment ([3]; tetrahydrofuran/n-heptane, n-heptane added): free form (solvate)
